What was measured:
[1] = test system: promoter region of the human IL-13 gene; experiment: IL-13 promoter-luciferase reporter assay; format: cell-based; conditions: 10 μM cPGI, 24 h
From the text: Promoter sequences of human IL-13 gene containing PPRE and GATA elements were isolated from human leukocyte genomic DNA by polymerase chain reaction (PCR) with primers A (5′-[…]-3′ (SEQ ID NO: 3); sense) and D (5′-[…]-3′ (SEQ ID No: 4); antisense) for the 1.3 kbp fragment, and B (5′-[…]-3′ (SEQ ID NO: 5); sense) and D for the 0.4 kbp fragment. Each fragment was inserted into the MluI-XbaI site of pGL3-promoter vector (Promega, Madison, Wis.). Human vascular endothelial cells (1.2×10^4 cells/cm^2) were cotransfected with 0.2 μg of IL-13-luciferase reporter vector, 0.1 μg of β-galactosidase expression vector and 0.7 μg of expression vector for PPARδwt, PPARδdn, CREBwt, CREBdn or mock vector by use of TransIT LT-1. After 17 h of transfection, cells were incubated in fresh EGM-2 containing 2% FBS. After another 24 h, the cells were washed with PBS, and cultured in EGF-2 containing 2% FBS with 10 μM cPGI for 24 h to quantify luciferase and β-galactosidase activities as described previously (Hatae et al., J. Biol. Chem. (2001) 276: 46260-7). The luciferase activity of the extract was normalized to β-galactosidase activity.

[2] = test system: adhesion between human vascular endothelial cells and monocytic leukocyte U937 cells; experiment: Adherence assay of U937 cells to endothelial monolayers; format: cell-based; conditions: HUVEC
Protocol: HUVEC (2.5×10^4 cells/cm^2) were cultured in 12-well plates. After 24 h, confluent monolayers were used for adherence assays. Monolayers were preincubated in EGM-2 containing 2% FBS, 0 or 10 ng/ml TNF-α, 0 or 10 ng/ml IL-13 and 0 or 10 μM cPGI with or without anti-IL-13 monoclonal antibody (0.5 μg/ml) at 37° C. for 0 to 24 h. Human monocyte leukocyte U937 cells were cultured in RPMI 1640 (Gibco-Invitrogen) containing 10% FBS, 100 U/ml penicillin and […] streptomycin , labeled with 2.5 μM calcein-AM (Molecular Probes, Eugene, Oreg.) at room temperature for 45 min, washed and resuspended in serum-free EGM-2. The calcein-labeled U937 cells (8×10^4 cells/well) were added to pretreated endothelial cells and incubated with cPGI (0, 10 μM), recombinant IL-13 (0, 10 ng/ml) and anti-IL-13 monoclonal antibody (0, 0.5 μg/ml). U937 cells were allowed to adhere to pretreated endothelial cells for 30 min at 37° C. Adherence was assessed with a fluorescence image analyzer (FLA-2000; Fujifilm, Tokyo, Japan). Plates were scanned before and after washing for total and adherent cells, respectively, and relative adherence was calculated (fold of control).

COX-2 gene = experiment: RT-PCR analysis of COX-2 mRNA; format: cell-based, human; conditions: HUVEC, cPGI 10 μM, 12 h, FIG. 5 lane 3
Protocol: For analysis of IL-13, human vascular endothelial cells (1.2×10^4 cells/cm^2) were stimulated with cPGI (10 μM) for 12 h, and total RNA was prepared from stimulated cells with Isogen (Nippon Gene). For analysis of COX-2, human vascular endothelial cells (1.2×10^4 cells/cm^2) were pretreated with TNF-α (1 ng/ml) and IL-1b (20 ng/ml) for 1 h, and then treated with cPGI (0, 10 μM), anti-human IL-13 monoclonal antibody (0, 0.5 μg/ml) and control IgG (0, 0.5 μg/ml) for 12 h to prepare total RNA. The total RNA (0.5 μg) was used for analysis by SuperScript RT-PCR system (Invitrogen) according to the manufacturer's instructions. The oligonucleotide primers used were IL-13-s (5′-[…]-3′ (SEQ ID NO: 6); sense) and IL-13-as (5′-[…]-3′ (SEQ ID NO: 7); antisense) for human IL-13, β-actin-s (5′-[…]-3′ (SEQ ID NO: 8); sense) and β-actin-as (5′-[…]-3′ (SEQ ID NO: 9); antisense) for human β-actin, and COX-2-s (5′-[…]-3′ (SEQ ID NO: 10); sense) and COX-2-as (5′-[…]-3′ (SEQ ID NO: 11); antisense) for human COX-2. For each PCR amplification, 1 μl of cDNA was used in a 50 μl reaction. Reverse transcription-PCR (RT-PCR) for β-actin (25 cycles) was used as an internal control for mRNA abundance. For IL-13 and COX-2 genes, the number of cycles ranged from 25 to 45. […] Samples were normalized based on equivalent expression of β-actin.

[3] = 413 bp IL-13 promoter fragment, FIG. 3

## CCCCC[C@H](O)/C=C/[C@@H]1[C@H]2C/C(=C/CCCC(=O)O)C[C@H]2C[C@H]1O [cPGI, carbaprostacyclin]
[1]; [3]
  cPGI-dependent IL-13 promoter luciferase activity on coexpression of dominant negative CREB (CREBdn): no effect
  cPGI-dependent increase of IL-13 promoter luciferase activity on cotransfection of dominant negative PPARδ (PPARδdn): suppressed
[1]; HUVEC, FIG. 2B
  luciferase activity of reporter vector containing GATA sequences without PPREs: increased only weakly
  luciferase activity of reporter vectors containing the PPRE consensus region of the IL-13 promoter: significantly increase
  luciferase activity of vectors from which the PPRE consensus sequence region had been deleted: not increased
[2]; TNF-α 10 ng/ml plus antibody 0.5 μg/ml, cPGI 10 μM or IL-13 10 ng/ml, 24 h, FIG. 4D lanes 3-5
  TNF-α-induced monocytic leukocyte-endothelial cell adhesion: inhibited
[2]; TNF-α 10 ng/ml, cPGI 10 μM, 0 h to 24 h, FIG. 4E
  adhesion over time, TNF-α pretreatment in the presence of cPGI: dramatically inhibited
COX-2 gene
  inducible expression of COX-2 (TNF-α and IL-1 induced): significantly inhibited
